Reference: the supplement of paper PMC11061612

Experiments:
Assay in all cases: combination Emax (second highest fraction inhibited in the dose matrix, 72 h); higher = more inhibition; extreme values may be limits of the assay
[1] = tested on: HuH-7 (Hepatocellular Carcinoma)
Summary of the method: (§1)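 After 24 hours at 37°C and 5% CO2 in 1536-well plates, cells in DMEM/F12 or RPMI plus 10% FBS received two-drug dose matrices for 72 hours. Viability came from CellTiter-Glo 2.0 luminescence and was scaled as inhibition, anchored at 0 by vehicle wells and at 1 by blank wells. Combination Emax is taken as the second-highest inhibition in the matrix, and Bliss excess as the observed combination effect less EA + EB − EA·EB, with EA and EB the single-agent effects.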

[2] = tested on: Detroit562 (Head and Neck Carcinoma)
Summary of the method: as §1

[3] = tested on: HeLa (Cervical Carcinoma)
Summary of the method: as §1

LOXIMVI (Melanoma) = tested on: LOXIMVI (Melanoma)
Summary of the method: as §1

[4] = tested on: NCI-H1568 (Lung Adenocarcinoma)
Summary of the method: as §1

[5] = tested on: OV-56 (Ovarian Carcinoma)
Summary of the method: as §1

[6] = tested on: OE21 (Esophageal Squamous Cell Carcinoma)
Summary of the method: as §1

[7] = tested on: Hs-746T (Gastric Carcinoma)
Summary of the method: as §1

[8] = tested on: FTC-133 (Thyroid Gland Carcinoma)
Summary of the method: as §1

[9] = tested on: SAS (Oral Cavity Carcinoma)
Summary of the method: as §1

[10] = tested on: LS-123 (Colorectal Carcinoma)
Summary of the method: as §1

[11] = tested on: NCI-H209 (Small Cell Lung Carcinoma)
Summary of the method: as §1

[12] = tested on: L-428 (Hodgkin's Lymphoma)
Summary of the method: as §1

[13] = tested on: CAL-33 (Oral Cavity Carcinoma)
Summary of the method: as §1

[14] = tested on: NCI-H524 (Small Cell Lung Carcinoma)
Summary of the method: as §1

CAL-72 (Osteosarcoma) = tested on: CAL-72 (Osteosarcoma)
Summary of the method: as §1

NCI-H2052 (Mesothelioma) = tested on: NCI-H2052 (Mesothelioma)
Summary of the method: as §1

[15] = tested on: SW1573 (Lung Adenocarcinoma)
Summary of the method: as §1

[16] = tested on: HuCCT1 (Biliary Tract Carcinoma)
Summary of the method: as §1

NCI-H2722 (Mesothelioma) = tested on: NCI-H2722 (Mesothelioma)
Summary of the method: as §1

SMILES	combination Emax [1]	combination Emax [2]	combination Emax [3]	combination Emax (LOXIMVI (Melanoma))	combination Emax [4]	combination Emax [5]	combination Emax [6]	combination Emax [7]	combination Emax [8]	combination Emax [9]	combination Emax [10]	combination Emax [11]	combination Emax [12]	combination Emax [13]	combination Emax [14]	combination Emax (CAL-72 (Osteosarcoma))	combination Emax (NCI-H2052 (Mesothelioma))	combination Emax [15]	combination Emax [16]	combination Emax (NCI-H2722 (Mesothelioma))
CN(C)CCCOc1ccc(-c2ccc3ncc4c(c3c2)n(C2CCOCC2)c(=O)n4C)cn1 [AZD0156] + C=CCn1c(=O)c2cnc(Nc3ccc(N4CCN(C)CC4)cc3)nc2n1-c1cccc(C(C)(C)O)n1 [AZD1775] (first compound max 1 µM, partner max 1 µM)	0.262	0.606	0.498	0.753	0.419	0.19	0.567	0.491	0.536	0.548	0.609	0.84	0.824	0.643	0.792	0.778	0.376	0.268	0.717	0.268
CN(C)CCCOc1ccc(-c2ccc3ncc4c(c3c2)n(C2CCOCC2)c(=O)n4C)cn1 [AZD0156] + CCN(CCO)CCCOc1ccc2c(Nc3cc(CC(=O)Nc4cccc(F)c4)[nH]n3)ncnc2c1 [AZD2811] (first compound max 1 µM, 7x7, partner max 1 µM)	0.0893	0.75	0.156	0.4	0.131	0.062	0.22	0.155	0.284	0.0904	0.161	0.552	0.187	0.71	0.973	0.286	0.284	0.168	0.137	0.146
CN(C)CCCOc1ccc(-c2ccc3ncc4c(c3c2)n(C2CCOCC2)c(=O)n4C)cn1 [AZD0156] + C[C@@H]1COCCN1C2=NC(=NC(=C2)C3(CC3)[S@](=N)(=O)C)C4=C5C=CNC5=NC=C4 [AZD6738] (first compound max 1 µM, 7x7, partner max 10 µM)	0.325	0.88	0.679	0.908	0.49	0.741	0.696	0.636	0.666	0.855	0.644	0.854	0.777	0.782	0.858	0.889	0.399	0.196	0.796	0.248
C=CCn1c(=O)c2cnc(Nc3ccc(N4CCN(C)CC4)cc3)nc2n1-c1cccc(C(C)(C)O)n1 [AZD1775] + C1CN(CCC1(C(=O)N[C@@H](CCO)C2=CC=C(C=C2)Cl)N)C3=NC=NC4=C3C=CN4 [Capivasertib] (first compound max 3 µM, partner max 3 µM)	0.471	0.92	0.877	0.793	0.765	0.389	0.747	0.772	–	0.798	0.636	0.873	0.759	0.929	0.847	0.845	0.518	0.572	0.741	0.262
C=CCn1c(=O)c2cnc(Nc3ccc(N4CCN(C)CC4)cc3)nc2n1-c1cccc(C(C)(C)O)n1 [AZD1775] + C[C@@H]1COCCN1C2=NC(=NC(=C2)C3(CC3)[S@](=N)(=O)C)C4=C5C=CNC5=NC=C4 [AZD6738] (first compound max 1 µM, partner max 10 µM)	0.487	0.902	0.948	0.883	0.487	0.849	0.746	0.691	0.766	0.908	0.892	0.944	0.891	0.935	0.97	0.93	0.488	0.476	0.861	0.403
C=CCn1c(=O)c2cnc(Nc3ccc(N4CCN(C)CC4)cc3)nc2n1-c1cccc(C(C)(C)O)n1 [AZD1775] + O=C(c1cc(Cc2n[nH]c(=O)c3ccccc23)ccc1F)N1CCN(C(=O)C2CC2)CC1 [Olaparib] (first compound max 1 µM, partner max 10 µM)	0.304	0.669	0.694	0.638	0.422	0.261	0.498	0.591	0.602	0.577	0.644	0.922	0.842	0.721	0.789	0.756	0.467	0.317	0.818	0.346
CN(CCO)CC[C@H](CSc1ccccc1)Nc1ccc(S(=O)(=O)NC(=O)c2ccc(N3CCC([C@@H](O)c4ccccc4-c4ccc(Cl)cc4)CC3)cc2)cc1S(=O)(=O)C(F)(F)F [AZD4320] + C1CN(CCC1(C(=O)N[C@@H](CCO)C2=CC=C(C=C2)Cl)N)C3=NC=NC4=C3C=CN4 [Capivasertib] (first compound max 1 µM, 7x7, partner max 3 µM)	0.197	0.414	0.0628	0.202	0.142	0.0773	0.441	0.46	0.517	0.132	–	1	0.785	0.363	0.765	0.315	0.229	0.296	0.121	0.22
CN(CCO)CC[C@H](CSc1ccccc1)Nc1ccc(S(=O)(=O)NC(=O)c2ccc(N3CCC([C@@H](O)c4ccccc4-c4ccc(Cl)cc4)CC3)cc2)cc1S(=O)(=O)C(F)(F)F [AZD4320] + C=CCn1c(=O)c2cnc(Nc3ccc(N4CCN(C)CC4)cc3)nc2n1-c1cccc(C(C)(C)O)n1 [AZD1775] (first compound max 1 µM, partner max 1 µM)	0.729	0.684	0.722	0.691	0.57	0.165	0.641	0.738	0.919	0.647	–	1	0.983	0.859	0.952	0.782	0.374	0.698	0.807	0.55
CN(CCO)CC[C@H](CSc1ccccc1)Nc1ccc(S(=O)(=O)NC(=O)c2ccc(N3CCC([C@@H](O)c4ccccc4-c4ccc(Cl)cc4)CC3)cc2)cc1S(=O)(=O)C(F)(F)F [AZD4320] + CN(C)CCCOc1ccc(-c2ccc3ncc4c(c3c2)n(C2CCOCC2)c(=O)n4C)cn1 [AZD0156] (first compound max 1 µM, 7x7, partner max 1 µM)	0.154	0.168	0.0679	0.366	0.313	0.153	0.158	0.38	0.44	0.0348	–	1	0.828	0.198	0.814	0.332	0.201	0.128	0.251	0.285
CN(CCO)CC[C@H](CSc1ccccc1)Nc1ccc(S(=O)(=O)NC(=O)c2ccc(N3CCC([C@@H](O)c4ccccc4-c4ccc(Cl)cc4)CC3)cc2)cc1S(=O)(=O)C(F)(F)F [AZD4320] + C[C@@H](Nc1cc(F)cc(F)c1)c1cc(C(=O)N(C)C)cc2c(=O)cc(N3CCOCC3)oc12 [AZD8186] (first compound max 1 µM, 7x7, partner max 3 µM)	0.583	0.666	0.359	0.507	0.344	0.277	0.216	0.677	0.803	0.77	–	1	0.748	0.714	0.892	0.487	0.262	0.577	0.35	0.555
CN(CCO)CC[C@H](CSc1ccccc1)Nc1ccc(S(=O)(=O)NC(=O)c2ccc(N3CCC([C@@H](O)c4ccccc4-c4ccc(Cl)cc4)CC3)cc2)cc1S(=O)(=O)C(F)(F)F [AZD4320] + Cn1cnc2c(F)c(Nc3ccc(Br)cc3Cl)c(C(=O)NOCCO)cc21 [Selumetinib] (first compound max 1 µM, 7x7, partner max 3 µM)	0.55	0.637	0.397	0.689	0.444	0.304	0.413	0.77	0.74	0.83	–	1	0.737	0.701	0.84	0.51	0.262	0.575	0.571	0.508
Cc1c2c(nn1C)CSCc1cc(n(C)n1)CSc1cc(c3ccccc3c1)OCCCc1c(C(=O)O)n(C)c3c-2c(Cl)ccc13 [AZD5991] + CC1(C)CCC(CN2CCN(c3ccc(C(=O)NS(=O)(=O)c4ccc(NCC5CCOCC5)c([N+](=O)[O-])c4)c(Oc4cnc5[nH]ccc5c4)c3)CC2)=C(c2ccc(Cl)cc2)C1 [Venetoclax] (first compound max 1 µM, 7x7, partner max 1 µM)	0.306	0.156	0.794	0.229	0.248	0.173	0.454	0.203	0.677	0.184	0.142	0.996	0.158	–	0.629	0.423	0.229	0.177	0.203	0.122
